The values that follow are results of earlier work, collected in patent publication US20070282422A1, “Medical devices and methods for local delivery of elastin-stabilizing compounds” (Cook Incorporated, priority 2006, published 2007).

The test system of one series is aortic elastin. Particulars: lyophilized aortic elastin strips in buffered solutions of 0.3%-0.8% tannic acid.
Series [1] deals with elastin in ascending porcine aorta. To be noted: tannic concentrations of about 0.3%.

In the case of Tannic acid, the “reduced the susceptibility of the elastin towards elastase” value with aortic elastin is “about 50%”. The elastin stabilization entry in series [1] was “elastin stabilization”.
